Measured values taken from patent US20260102472A1, “SEMAGLUTIDE IN MEDICAL THERAPY” (Novo Nordisk A/S, priority 2023, published 2026).

Test system: human subjects with established cardiovascular (CV) disease and obesity or overweight
Assay: Randomised, double-blind, placebo-controlled clinical trial of semaglutide in established cardiovascular disease and obesity or overweight (Example 3)
Type: in vivo
Conditions: for Heart failure leading to hospitalisation, Treatment Hazard ratio vs. placebo / Heart failure leading to hospitalisation, Events / Heart failure leading to hospitalisation, Events (%): baseline to end-of-trial (mean duration 39.8 months), 2.4 mg once weekly
Procedure: A randomised, double-blind, international multicentre, placebo-controlled clinical trial with semaglutide was carried out with 17604 human subjects with established cardiovascular (CV) disease and obesity or overweight.
Key inclusion criteria were at least 45 years of age, BMI of at least 27 kg/m^2 and established (CV) disease. Key exclusion criteria were type 1 diabetes or type 2 diabetes.
Subjects were randomised in a 1:1 manner to receive either 2.4 mg semaglutide or placebo once weekly as add-on to standard of care. After randomization, a 16-week dose escalation period followed and then an event driven maintenance period with a mean (+SD) duration of exposure to semaglutide or placebo in the overall trial population of 34.2 (±13.7) months (33.3 (±14.4) months for semaglutide and 35.1 (±13.0) months for placebo). Subjects administered semaglutide initiated treatment with a once-weekly dose of 0.25 mg and followed a fixed dose escalation regimen, with dose increase every 4 weeks (through dosages of 0.5, 1.0, 1.7 mg once weekly), until the 2.4 mg once weekly maintenance dose was reached after 16 weeks.
Results from the clinical trial are presented in Tables 19-20 based on 8803 and 8801 subjects randomised to semaglutide and placebo, respectively. Results from the chronic heart failure (HF) population of the clinical trial are presented in Tables 21-22 based on 2155 and 2131 chronic HF subjects randomised to semaglutide and placebo, respectively. Heart failure leading to hospitalisation was defined as hospital admission for at least 24 hours with a primary diagnosis of heart failure with documented new or worsening symptoms due to heart failure; and objective evidence of new or worsening heart failure (physical findings and/or laboratory evidence or invasive diagnostic evidence); and increased/initiated appropriate treatment. Estimated hazard ratios relative to placebo and two-sided p-values were obtained from a Cox proportional hazards model with randomised treatment as a fixed factor. CI: Confidence interval.

[1] = subjects with chronic HF only (2155)

Substance: N-epsilon26-[2-(2-{2-[2-(2-{2-[(S)-4-Carboxy-4-(17-carboxyheptadecanoyl-amino) butyrylamino]ethoxy}ethoxy) acetylamino]ethoxy}ethoxy) acetyl] [Aib8,Arg34] GLP-1-(7-37) [Semaglutide]
- Heart failure leading to hospitalisation, Treatment Hazard ratio vs. placebo: 0.79
- Heart failure leading to hospitalisation, Events (8803 subjects): 97
- Heart failure leading to hospitalisation, Events (%) (8803 subjects): 1.1%
- Heart failure leading to hospitalisation, Treatment Hazard ratio vs. placebo (listed as semaglutide): achieved a reduction
- Reduction for CV death compared with placebo (patients with chronic heart failure, statistically significant): 24%
- Heart failure leading to hospitalisation, Events [1]: 61
- Heart failure leading to hospitalisation, Events (%) [1]: 2.8%
- Heart failure leading to hospitalisation, Treatment Hazard ratio vs. placebo (subjects with chronic HF only): 0.86
- Heart failure leading to hospitalisation, Treatment Hazard ratio vs. placebo (subjects with chronic HF only, listed as semaglutide): achieved a reduction
